The text below walks through data of a melting point compilation (Tetko et al.; mined from patent text by program, amines drawn as free bases though some values may be those of a salt).

`O=C(c1ccccc1)c1ccc(NC(=O)C(O)(C(F)F)C(F)F)cc1`: the melting point was 139 to 142 °C.
On to `COCCNCCc1ccc(Nc2ncc3c(n2)-c2ccccc2C(c2ccccc2C(F)(F)F)C3)cc1` (stereo not drawn), for which the melting point lay in the range of 61 to 62 °C.
Molecule `O=C(C=Cc1ccc(C(F)(F)F)cc1)N1CCc2c([nH]c3ccccc23)C1c1ccc2c(c1)OCO2` (stereo not drawn) showed a melting point of 233 °C.
With `Cc1ccc(Cc2ccc(-c3ccccc3)cc2)cc1`, the melting point amounted to 87 °C.
Turning to `CC(C)NCC1CCN(c2nc3c(cc2F)c(=O)c(C(=O)O)cn3C2CC2)C1` (stereo not drawn), the melting point was 240 to 243 °C.
Then `C1=Cc2cc(/C=C/c3ccc4c(c3)C=C4)ccc21`, with 132 °C; and `OCc1cn(-c2ccccc2)nc1OCc1ccccc1`, with 93 to 94 °C.
For the molecule `CC(C)(C)OC(=O)N1CC(c2ccc(N)nc2)C1`, the melting point was in the range of 103 to 104 °C.
Molecule `COc1ccc2c(c1OC)CCCC2=O` came in with a melting point of 103 to 104 °C.
`Cc1c(SCCCSCCn2c([N+](=O)[O-])cnc2C)ccnc1CNc1ncncc1Cl` showed a melting point of 119 to 121 °C.
In turn, `CC(C)(C)OC(=O)Nc1ccc(Nc2ncnc3[nH]cc(C(=O)c4ccccc4)c23)cc1` had a melting point of 274 to 280 °C.
`COCC(OC(C)=O)C1CC(OC(C)=O)C2(C)CCC3C(CCC4CC(=O)CC(C)C43C)C12` (stereo not drawn): the melting point lay within 149 to 150 °C.
The figure for `CC(C)C(c1cncnc1C(F)(F)F)N(C)C(=O)N(C)Cc1ccc(Cl)cc1` (stereo not drawn) is 95 to 98 °C; for `CS(=O)c1c(C(=N)NN)nn(-c2c(Cl)cc(C(F)(F)F)cc2Cl)c1N` (stereo not drawn) it is 210 °C.
Regarding `CCOC(=O)C1(C(=O)OCC)N(c2ccccc2)C(=O)CC1(C)O` (stereo not drawn), the melting point lay within 98 to 99 °C.
`Cn1c(=O)c(C(=O)C2=C(O)CCCC2=O)nc2ccccc21` displayed a melting point of 191 to 192 °C.
As to `CC(C)(CF)C(=O)C(Br)Oc1ccc(Cl)cc1` (stereo not drawn), the melting point is 73 to 75 °C.
The figure for `CN(C)C(=O)n1cc(C(=O)C2CSC(c3cccnc3)N2)c2ccc(OCc3ccc(F)cc3)cc21` (stereo not drawn) is 71 to 74 °C.
The molecule `Cc1cc(C2(C(F)(F)F)CC(C(F)(F)F)=NO2)ccc1NC(=O)c1cccc(I)c1C(=O)NC(C)C` (stereo not drawn) displayed a melting point of 240 to 242 °C.
As for `CC1(C)Oc2ccc(C#N)cc2[C@H](N)[C@@H]1O` (relative stereo), the melting point is 85 to 86 °C.
The figure for `CC(C)(C)c1ccc(O)c(CO)c1` is 65 to 85 °C; for `O=C1C=C(Br)C(CBr)(NCc2ccccc2)O1` (stereo not drawn) it is 137 to 139 °C; for `COc1cc2c(c(Cl)c1Cl)C(=O)C(c1ccccc1)(c1ccccc1)C2` it is 172 to 174 °C.
Take `CCCCOCCOc1ccc(-c2ccc3c(c2)C=C(C(=O)Nc2ccc(S(=O)Cc4nncn4CCCC)cc2)CCN3CC(C)C)cc1` (stereo not drawn): the melting point fell in the range of 178 to 180 °C.
Take `O=C(Cl)c1cccnc1Oc1cccc(Cl)c1`: the melting point fell in the range of 72 to 74 °C.
Then `CC(F)(C(=O)O)c1ccc(OS(=O)(=O)C(F)(F)F)cc1` (stereo not drawn), with 91 to 94 °C; and `CN1CC(=O)Nc2ccccc21`, with 132 °C.
As to `Cc1cccnc1-n1c(S(=O)Cc2ccccc2N(C)C)nc2c1CCC2` (stereo not drawn), the melting point was 119 to 120 °C.
Then `CCCCCCCCCCCC1CC(=O)C(CCCCCC)C(=O)O1` (stereo not drawn), with 112 to 114 °C; and `O=C(c1ccccc1)c1cc[nH]c1`, with 96 to 97 °C; and `CNC(=O)Cn1c(-c2ccc(Br)cc2)nc2cccnc21`, with 258 to 259 °C.
In turn, `CCCc1ccc(COc2ccc3c(c2)CCC(CN2CC(C(=O)O)C2)=C3C)c(OC)c1` registered a melting point of 158 to 163 °C.
The molecule `CSc1ccc(-c2sc(NC(C)=O)nc2/C=C/c2ccc([N+](=O)[O-])cc2)cc1` displayed a melting point of 228 to 230 °C.
Then `CC(C)(C)OC(=O)N1CC=C(C2=C(C#N)C(c3cccc4nonc34)c3c[nH]nc3N2)CC1` (stereo not drawn), with 222 °C; and `CC(=O)S[C@H]1CO[C@@H](c2ccccc2)OC1`, with 94 to 95 °C.
Molecule `CC(C)(C)OC(=O)c1nc(-c2cccc3ccccc23)[nH]c1-c1ccncc1` gave a melting point of 184 to 190 °C.
Then `N#CCCNC(=O)c1cccc(-c2cccc3c2CN(Cc2cccc(C(F)(F)F)c2)CC3)c1`, with 114 to 117 °C.
`CC(C)C(NC(=O)c1ccc(C(=O)NCc2ccc(Cl)cc2)cc1)C(=O)N1CCCC1C(=O)NC(C(=O)C(F)(F)F)C(C)C` (mixture of isomers) displayed a melting point of 87 to 89 °C.
`COc1ccc2c(c1)c(C=C1SC(=S)N(CC(=O)O)C1=O)c(C)n2C(=O)c1ccc(Cl)cc1` came in with a melting point of 204 to 208 °C.
In turn, `N#CCOc1ccc(CCNC(=O)OCc2ccccc2)cc1` had a melting point of 110 to 115 °C.
Molecule `CSc1nc(-c2cc(N)ccc2C)c2c(n1)N(c1c(F)cccc1F)C(=O)NC2` gave a melting point of 122 to 125 °C.
Then `NS(=O)(=O)c1ccc(-n2nc(C(F)(F)F)cc2-c2ccc(-c3ccco3)cc2)cc1F`, with 151 °C; and `Cc1ccccc1CCOCC(=O)O`, with 47 to 48 °C; and `CCn1c(=O)cc(C)c2ccc(OCCCN3CCC(NC(=O)c4ccccc4)CC3)cc21`, with 164 to 165 °C.
Then `CO/N=C(/C(=O)O)c1ccc(OCCOc2ccc3ccccc3c2)s1`, with 118 to 120 °C; and `Cc1cc(-c2cc(C(F)(F)F)n3ncc(-c4nc(-c5ccc(N)nc5)no4)c3n2)ccc1C(F)(F)F`, with 220 °C; and `O=C(Nc1nc(-c2ccccc2)c(-c2nc3ccccc3c(=O)n2-c2ccc(Cl)cc2)s1)c1ccccc1`, with above 275 °C.
Take `C[Si]1(CC(CN)CC(=O)O)CCCCC1` (stereo not drawn): the melting point lay within 140 to 143 °C.
Molecule `Cn1cnc2c1c1n[nH]c(=S)n1c(=O)n2Cc1ccccc1` yielded a melting point of 278 °C.
Then `COC(=O)c1ccc(OCCNC(=O)c2ccc(Br)cc2)cc1`, with 134 to 136 °C; and `O=C(O)c1ccc2c(c1)Cc1ccccc1CO2`, with 240 to 244 °C; and `O=C1c2ccccc2-c2c1c1ccccc1c(=O)n2CCCCCCNS(=O)(=O)c1ccc(Br)cc1`, with 188 to 190 °C.
Molecule `CN(CCCN)S(=O)(=O)CCC(F)(F)C(F)(F)C(F)(F)C(F)(F)C(F)(F)C(F)(F)F` gave a melting point of 135 °C.
Molecule `Cc1oc(-c2ccccc2)nc1CCOc1ccc(N)cn1` gave a melting point of 107 to 108 °C.
Turning to `Cc1ccc(COC(C)CN(O)C(N)=O)s1` (stereo not drawn), the melting point lay in the range of 84 to 85 °C.
In turn, `COC(=O)[C@@H]1CCCCOc2ccc(cc2)C[C@H](NC(=O)OC(C)(C)C)C(=O)N[C@@H](C(C)C)C(=O)N1` returned a melting point of 225 to 228 °C.
As to `COc1ccccc1Cn1c(=O)c2c(N3CCN(C)CC3)cc(Cl)cc2n(Cc2ccccc2)c1=O`, the melting point was 91 to 96 °C.
`COC(=O)c1cccc2c3nc4ccccc4[nH]c-3nc12` returned a melting point of 251 to 255 °C.
In turn, `CN1CC(CCCl)Oc2ncc(Cl)cc2C1=O` (stereo not drawn) showed a melting point of 78 to 79 °C.
Take `N#Cc1ccc2[nH]cc(CCN)c2c1`: the melting point lay within 102 to 105 °C.
As to `C=CC(=O)OC1(C)CCCC2C3C=CC(C3)C21` (stereo not drawn), the melting point lay in the range of 41 to 42 °C.
Consider `c1cc(C2OCCO2)ccc1C1OCCO1`, for which the melting point lay in the range of 86 to 89 °C.
Regarding `CCC(O)=C1SC(=S)N(c2ccc(Cl)cc2)C1=O`, the melting point lay within 145 to 149 °C.
The molecule `COc1ccc(CCc2oc3ccc(Br)cc3c2C(C)=O)cc1` yielded a melting point of 100 to 101 °C.
`Cc1cc(C(F)(F)F)cnc1O` showed a melting point of 141 to 143 °C.
On to `N#Cc1cc(-c2nc3cncnc3s2)ccc1Sc1ccccc1F`, for which the melting point was 178 to 180 °C.
The figure for `CSCc1cn(C)c2cc(C(F)(F)F)ccc2c1=O` is 182 to 184 °C; for `CS(=O)(=O)Nc1cccc2c(-c3ccccc3)c([N+](=O)[O-])oc12` it is 169 to 172 °C.
`O=c1[nH]c2c3ccccc3ccc2n(C2CCCCC2)c1=O`: the melting point is 288 °C.
`OCCc1coc(-c2ccc3ccccc3c2)n1` returned a melting point of 96 to 98 °C.
The figure for `O=C(O)CCC(=O)c1ccc(-c2ccc(Cl)cc2)cc1` is 184 to 185 °C; for `O=C(c1ccccc1)c1ccc(C(=O)N2Cc3ccccc3Oc3ccccc32)cc1` it is 103 to 106 °C.
As for `Cn1cc(C(=O)c2ccc(Cl)cc2)cc1C(=O)CCl`, the melting point was in the range of 130 to 132 °C.
In turn, `O=C1C(=O)N(CCCN2CCN(C(c3ccccc3)(c3ccccc3)c3ccccc3)CC2)c2ccccc21` gave a melting point of 145 to 149 °C.
Consider `Cc1ccc(C(=O)Nc2cccc(C(F)(F)F)c2)cc1-c1ccc2ncsc2c1`, for which the melting point was 102 to 104 °C.
Consider `CC1(C(F)(F)F)OC(=O)Nc2ccc(Cl)cc21` (stereo not drawn), for which the melting point came out at 216 °C.
Turning to `CCC(=O)C1=C(O)CC(c2ccc(Oc3ccc(S(C)(=O)=O)cc3)cc2)CC1=O` (stereo not drawn), the melting point fell in the range of 157 to 158 °C.
The figure for `Cn1cc(-c2ccccc2)c(=O)c(-c2cc(Cl)cc(Cl)c2)c1` is 131 to 135 °C; for `O=C(O)CN(CC(=O)O)CC(CCc1ccc([N+](=O)[O-])cc1)N(CC(=O)O)CC(=O)O` (stereo not drawn) it is 188 to 189 °C; for `N#Cc1ncn2c1[C@@H]1CCN1C(=O)c1c(Br)cccc1-2` it is 133 to 136 °C.
Take `Cc1c(C(=O)O)c(=O)c(Br)c(-c2ccccc2)n1C`: the melting point is 257 to 258 °C.
For the molecule `CCOP(=O)(NC(=O)c1cc(=O)c2ccccc2o1)OCC`, the melting point lay in the range of 182 to 183 °C.
In turn, `N#Cc1c(N2CCN(C(=O)c3cccs3)CC2)c2sccc2n(CC(=O)c2ccccc2)c1=O` showed a melting point of 300 °C.
On to `O=C(Nc1cccc(OCCCN2CCOCC2)c1)C12CC3CC(CC(C3)C1)C2`, for which the melting point lay in the range of 160 to 164 °C.
For `Cc1ccc(N)c(C(=O)NCC(C)Cn2ccnc2)c1` (stereo not drawn), the melting point lay in the range of 120 to 122 °C.
Consider `N#Cc1ccnc(Oc2ccc(CCNc3ncnc4scnc34)cc2)c1`, for which the melting point was 145 to 148 °C.
`O=C(O)c1cccc(-c2ccc3c(c2)N(Cc2cccc(Cl)c2Cl)CC3)c1` returned a melting point of 185 to 186 °C.
With `Cn1nc(-c2cnc3[nH]cc(C(=O)NC4CCCC4)c3n2)c2ccc(Cl)cc21`, the melting point fell in the range of 341 to 343 °C.
